{"source": "patent US11318108B2", "about": "“Use of carotenoid derivatives to reduce the toxicity and increase the efficacy of anti-EGFR antitumor treatments” (ASSOCIAZIONE ONCOLOGICA MILANESE AMO LA VITA ONLUS, priority 2017, dated 2022)", "key": {"[1]": {"test_system": "cutaneous and/or mucosal toxicity induced by anti-EGFR drugs", "assay": "administration of lycopene to patients treated with anti-EGFR drugs", "format": "in vivo", "excerpt": "The regression has been so significant that patients, who could not shave the beard before the treatment with lycopene, could perform normal shaving after 2 weeks from the daily administration of lycopene."}, "[2]": {"conditions": "cited from earlier work"}, "[3]": {"conditions": "patients affected by paronychia due to anti-EGFR drugs"}, "[4]": {"conditions": "dosage of treatment group A (6.5 mg tablets, 3 tablets/day)"}}, "data": [{"smiles": "CC(C)=CCC/C(C)=C/C=C/C(C)=C/C=C/C(C)=C/C=C/C=C(C)/C=C/C=C(C)/C=C/C=C(\\C)CCC=C(C)C", "note": "[lycopene]", "values": [{"measurement": "regression of pustular injuries", "setting": "[1]; male patients of age between 35 and 55 years treated with anti-EGFR drugs, already presenting pustular injuries", "value": "significant regression"}, {"measurement": "time from daily administration until normal shaving possible", "setting": "[1]; male patients who could not shave the beard before treatment, daily administration", "value": 2, "unit": "weeks"}, {"measurement": "functional ability of hand fingers", "setting": "[1]; [3]", "value": "recover the lost functional ability"}, {"measurement": "nail growth and strength", "setting": "[1]; [3]", "value": "recover the normal nail growth and strength"}, {"measurement": "pain condition in paronychia", "setting": "[1]; [3]", "value": "improvement of the pain condition"}, {"measurement": "inflammation of paronychia", "setting": "[1]; patients affected by paronychia due to anti-EGFR drugs with functional disabling of the hand fingers", "value": "resolution of the inflammation"}, {"measurement": "regression of the rosiness (diffuse erythema of the face)", "setting": "[1]; patients treated with anti-EGFR drugs", "value": "significant regression of the rosiness"}, {"measurement": "onset/extension of rosiness coloration", "setting": "[1]; some patients not yet affected by erythema", "value": "delayed and/or decreased the extension of such coloration"}, {"measurement": "side effects during chronic intake", "setting": "[2]; chronic intake, several studies", "value": "absence of relevant side effects"}, {"measurement": "observed safe level of intake (OSL)", "setting": "[2]; chronic intake", "value": "up to 75 mg/day"}, {"measurement": "antioxidant effects at the trial dosage", "setting": "[2]; [4]", "value": "significant antioxidant effects"}, {"measurement": "side effects at the trial dosage", "setting": "[2]; [4]", "value": "not to have relevant side effects"}]}]}
